The test system of data set [1] is HCA2 human fibroblasts. The conditions noted are these: 2.5 μM, 48 hours. The protocol: (§1) The initial drug screen was performed in a 96-well format using automated liquid handling with a Biomek FX (Beckman Coulter, CA). Senescent cells were plated 24 hours after X-irradiation at 7,500 cells per well in 96-well plates. Six days after plating the senescent cells, the pre-senescent cells were plated at 7,500 cells per well in 96-well plates. Twenty-four hours after pre-senescent plating, both pre-senescent and senescent cells were washed and incubated in low (0.2%) serum for 48 hours to arrest cell proliferation of the pre-senescent cells. Drugs from the Prestwick Chemical Library, which contains 1120 bio-available compounds in DMSO, were given to the cells at 2.5 μM in media containing 0.2% serum. Forty-eight hours after compound addition, the medium in each well was removed and frozen for assay by ELISA to quantitate the levels of IL-6. The cells, which remained in the wells after the medium was removed, were lysed and ATP levels were measured (ATPlite 1-step assay, Perkin Elmer, MA) to exclude compounds that lowered IL-6 through toxicity (cell death). Experimental wells in each plate were normalized to plate mean or same-plate DMSO controls for the ELISA and ATP assays, respectively.
To identify small molecules that may be potential SASP modulators, a screening strategy that entailed administering compounds to parallel 96-well plates containing human fibroblasts (strain HCA2) that were either quiescent or senescent was developed. The compounds tested comprised the Prestwick Chemical Library, a collection of approximately 1,120 Federal Drug Administration-approved drugs. The compounds were added to duplicate wells at a single concentration (2.5 μM). After 48 hours, the medium from each well was removed, and the cells were lysed. […] Cell lysates were assayed for ATP as a surrogate for cell number.

Data set [2] deals with SASP. Kind of data set: Multiplex ELISA of conditioned media from irradiated IMR90 fibroblasts (50 cytokines and growth factors). The class given is cell-based, human. The conditions noted are these: 10 μM apigenin immediately after irradiation, analyzed 6 days later; less than 2 fold not considered significant. Here is the method: To determine whether or to what extent apigenin suppressed the entire SASP, multiplex ELISA was used to interrogate the relative secretion of 50 cytokines and growth factors. IMR90 fibroblasts were treated with 10 μM apigenin or DMSO immediately after irradiation and analyzed 6 days later. Cells were washed and incubated in serum-free media without apigenin to generate conditioned media. Conditioned media from […], apigenin- or DMSO-treated irradiated IMR90 cells and control (mock-irradiated, DMSO-treated) cells were analyzed by ELISA for various SASP factors (FIG. 19).

Data set [3] relates to IL-6. Kind of data set: Initial drug screen (Prestwick Chemical Library), IL-6 ELISA of medium. It is filed as cell-based, human. The conditions noted are these: 2.5 μM, 48 hours, HCA2 fibroblasts, 0.2% serum. The protocol: as §1, with “Drugs from the Prestwick Chemical Library, which contains 1120 bio-available compounds in DMSO, were given to the cells at 2.5 μM in media containing 0.2% serum.” left out
To identify small molecules that may be potential SASP modulators, a screening strategy that entailed administering compounds to parallel 96-well plates containing human fibroblasts (strain HCA2) that were either quiescent or senescent was developed. […] After 48 hours, the medium from each well was removed, and the cells were lysed. […] Cell lysates were assayed for ATP as a surrogate for cell number.

Data set [4] relates to senescent cells. Kind of data set: Doxorubicin-induced senescent cells in tissues of p16-3MR mice (mRFP and p16INK4a mRNA). To be noted: doxorubicin 10 mg/kg vs untreated control mice. It is filed as in vivo, mouse. The text has this: Similar results were observed when the senescent cell accumulation was induced with the chemotherapeutic agent, doxorubicin. […] Various tissues were isolated (liver, heart, lung, kidney, and spleen) and measured for abundance of mRNAs encoding mRFP and p16INK4a as markers for senescent cells (see FIGS. 5A and 5B, respectively).

Data set [5] deals with B16 mouse melanoma cells. Briefly: Subcutaneous B16 melanoma in doxorubicin-treated p16-3MR mice. It is filed as in vivo. To be noted: for p16INK4a and mRFP expression in skin biopsies / tumor diameters: doxorubicin 10 mg/kg with or without GCV; for tumor diameters / growth/size of subcutaneous B16 melanoma tumors: 12 days after B16 injection; for growth/size of subcutaneous B16 melanoma tumors: doxorubicin 10 mg/kg, GCV 25 mg/kg daily for 7 days starting 7 days later. The protocol:
Briefly, p16-3MR transgenic mice were treated with vehicle (ctrl) or 10 mg/kg doxorubicin. Seven days after doxorubicin treatment, mice were treated daily with GCV (25 mg/kg) for 7 days or vehicle only. 3 days after the last GCV treatment, 4×10^5 B16 mouse melanoma cells were injected subcutaneously into the p16-3MR transgenic mice, and mice were sacrificed after 12 days for analysis.

The subject of data set [6] is K-Ras induced lung tumors. Kind of data set: K-Ras mediated lung tumorigenesis in INK-ATTAC:K-RasLA1 mice. The arrangement: dose or concentration left out as unconfirmed. The conditions noted are these: INK-ATTAC3:K-RasLA1 and INK-ATTAC5:K-RasLA1 mice, from three weeks of age; 21 days after treatment. It is filed as in vivo, mouse. The text has this:
Briefly, INK-ATTAC (p16^Ink4a apoptosis through targeted activation of caspase) transgenic mice have an FK506-binding protein (FKBP)-caspase 8 (Casp8) fusion polypeptide under the control of the p16^Ink4a promoter (see FIG. 10 providing a vector sequence for the transgene and FIG. 11 providing sequences for components of the transgene including the promoter sequence). In the presence of AP20187, a synthetic drug that induces dimerization of a membrane bound myristoylated FKBP-Casp8 fusion protein, senescent cells specifically expressing the FKBP-Casp8 fusion protein via the p16^Ink4a promoter undergo programmed cell death (apoptosis) (see, e.g., Baker, Nature, supra, FIG. 1 therein). Two founder lines (INK-ATTAC^3 and INK-ATTAC^5) were each bred with the K-rasLA1 tumor model. […]
Two INK-ATTAC:K-RasLA1 were produced (one for INK-ATTAC line 3 and one for line 5). […] Twenty one days after treatment, the mice were sacrificed and tumor multiplicity in lungs was measured. […] In addition, metastasis and overall survival will be monitored after tumor induction in the presence or absence of p16-positive cells.

Data set [7] concerns senescent cells. Briefly: Detection and clearance of senescent cells in irradiated p16-3MR transgenic mice (rLUC bioluminescence, SASP biomarker RNA). It is filed as in vivo, mouse. Here is the method: Briefly, a group of p16-3MR transgenic mice were exposed to whole body ionizing radiation (7 Gy X-ray) and a control group of p16-3MR transgenic mice were mock-irradiated. After three months, the mice were treated with GCV (25 mg/kg) or vehicle only, and then at least two weeks later bioluminescence in tissues was examined after administering the rLUC substrate.

The subject of data set [8] is B16 mouse melanoma cells. Kind of data set: B16 melanoma tail-vein injection in irradiated p16-3MR mice (primary tumors and metastases, fLUC bioluminescence). The class given is in vivo. The protocol:
Briefly, 10^6 B16 mouse melanoma cells, a highly aggressive cell line that is syngeneic with p16-3MR transgenic mice (C57B16 background), that express firefly luciferase (fLUC, to enable their detection by bioluminescence) were injected into the tail vein of the p16-3MR transgenic mice approximately three months after being either mock irradiated or irradiated, as described in Example 2. Irradiated mice were treated daily with GCV (25 mg/kg) or vehicle only for 7 days, and then 3 days following the last GCV dose, B16 mouse melanoma cells were injected into the mice. B16 mouse melanoma cells first colonize the lung, where they form primary tumors approximately two weeks after injection, and thereafter metastasize to distal tissues to form secondary tumors in, for example, the pancreas, liver and visceral fat. The bioluminescence markers, fLUC and rLUC are distinguishable because the enzymes use different substrates.

The mark [9] stands for this setting: irradiated + GCV, eighteen days after injection.

We go through four compounds from US9884065B2, “Inhibiting activity of senescent cells using a glucocorticoid” (Buck Institute for Research on Aging, priority 2011, dated 2018).

“Also recorded” adds a separate entry of the source.

Turning to `O=c1cc(-c2ccc(O)cc2)oc2cc(O)cc(O)c12` [apigenin, 4′,5,7-trihydroxyflavone], the ATP levels result in data set [1] is “without altering ATP levels”. For the same compound, in data set [2], the “secretion of SASP factors (fold difference over control)” value was “suppressed the secretion of several pro-inflammatory cytokines and chemokines, including, for example, TGFA, MCP3, LIF, IFNβ, IL-6, GROA, and IL-2”. For the same compound, the “IL-6 secretion (ELISA)” value in data set [3] is reported as “capable of suppressing IL-6 secretion”.
As for `COc1cccc2c1C(=O)c1c(O)c3c(c(O)c1C2=O)C[C@@](O)(C(=O)CO)C[C@@H]3O[C@H]1C[C@H](N)[C@H](O)[C@H](C)O1` [doxorubicin], the “mRFP and p16INK4a mRNA in liver, heart, lung, kidney, spleen” value in data set [4] is “higher levels of mRFP and p16INK4a in all tissues”. Besides, in data set [5], the “p16INK4a and mRFP expression in skin biopsies” value was “increased senescence”; the tumor diameters result is given as “increased tumor sizes”; the “growth/size of subcutaneous B16 melanoma tumors” value was “stimulated the growth of B16 melanoma cells; also recorded: Tumor growth was increased”.
As to `CC[C@H](C(=O)N1CCCC[C@H]1C(=O)O[C@H](CCc1ccc(OC)c(OC)c1)c1cccc(OCC(=O)NCC(CNC(=O)COc2cccc([C@@H](CCc3ccc(OC)c(OC)c3)OC(=O)[C@@H]3CCCCN3C(=O)[C@@H](CC)c3cc(OC)c(OC)c(OC)c3)c2)CN(C)C)c1)c1cc(OC)c(OC)c(OC)c1` [AP20187], in data set [6], the “tumor multiplicity in lungs (tumor numbers)” value was “significantly reduced”.
As to `Nc1nc(O)c2ncn(COC(CO)CO)c2n1` [GCV, ganciclovir], the “rLUC expression levels (bioluminescence in tissues)” value in data set [7] (irradiated (7 Gy) p16-3MR mice, GCV 25 mg/kg three months after irradiation, lung tissue shown) is “comparable to unirradiated mice”. Further, in data set [7] (irradiated p16-3MR mice treated with GCV), the “p16INK4a (p16), IL-6, MMP-3 and mRFP RNA expression levels” value is “returned p16INK4a (p16), IL-6, MMP-3 and mRFP expression levels to those found in the unirradiated control mice”. For the same compound, in data set [8] (18 days after injection), the “metastatic B16 melanoma cells, Fat (estimated % of total area of fat)” value is reported as 25% and the “metastatic B16 melanoma cells, Liver” value amounted to 7 ± 3.6 nodules. Besides, the “metastatic B16 melanoma cells, Lung (luminescent nodules)” value in data set [8] (18 days after injection, TNTC = too numerous to count) is “TNTC”. In addition, the “B16 cells as detected by luminescence” value in data set [8] (irradiated + GCV, day 18) is “still showed relatively low levels of B16 cells”. In addition, in data set [8] (setting [9]), the “metastases in distal organs (liver, fat)” value is on record as “almost devoid of metastases” and the primary lung tumors result is “large primary lung tumors were evident”. Besides, the “B16 cells as detected by luminescence” value in data set [8] (irradiated + GCV, fifteen days after injection) was “relatively low levels of B16 cells”. For the same compound, the “primary tumors and metastases” value in data set [8] (irradiated mice, GCV 25 mg/kg daily for 7 days, 15 days after B16 injection) was “much smaller primary tumors and many fewer metastases”. In addition, in data set [5], the “p16INK4a and mRFP expression in skin biopsies” value was “low levels of p16INK4a and mRFP expression”; the tumor diameters entry was “smaller tumor sizes”; the “growth/size of subcutaneous B16 melanoma tumors” value is listed as “substantially reduced the size of B16 melanoma tumors; also recorded: much smaller primary tumors”.
